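Cells were grown in 96-well plates and exposed to each compound for 48 hours at five concentrations; endpoints were interpolated linearly between bracketing concentrations, or set to the highest concentration if not reached. GI50 is the concentration that inhibits growth by half.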 Activity calls are given as the source filed them. Cut-off read from the data, not from the text of the source: active = GI50 up to about 1.1 µM and inactive = higher.
Key:
Assay in all cases: inhibition of tumour cell growth, NCI panel, 48 h
HT-29 = tested on: HT-29
U-251 = tested on: U-251
NCI-H226 = tested on: NCI-H226
HOP-62 = tested on: HOP-62
SK-MEL-2 = tested on: SK-MEL-2
NCI-H23 = tested on: NCI-H23
SNB-19 = tested on: SNB-19
TK-10 = tested on: TK-10
SN12C = tested on: SN12C
ACHN = tested on: ACHN
SF-539 = tested on: SF-539
UACC-62 = tested on: UACC-62
SF-295 = tested on: SF-295
SK-MEL-28 = tested on: SK-MEL-28
HCC 2998 = tested on: HCC 2998
RXF 393 = tested on: RXF 393
UO-31 = tested on: UO-31
NCI-H522 = tested on: NCI-H522

Compound	GI50 (HT-29)	GI50 (U-251)	GI50 (NCI-H226)	GI50 (HOP-62)	GI50 (SK-MEL-2)	GI50 (NCI-H23)	GI50 (SNB-19)	GI50 (TK-10)	GI50 (SN12C)	GI50 (ACHN)	GI50 (SF-539)	GI50 (UACC-62)	GI50 (SF-295)	GI50 (SK-MEL-28)	GI50 (HCC 2998)	GI50 (RXF 393)	GI50 (UO-31)	GI50 (NCI-H522)
CN(C)CCNC(=O)c1cccc2c1nc(-c1ccncc1)c1ccccc12	3.32 µM (inactive)	2.34 µM (inactive)	1.95 µM (inactive)	3.78 µM (inactive)	6.12 µM (inactive)	3.07 µM (inactive)	3.94 µM (inactive)	2.21 µM (inactive)	1.58 µM (inactive)	1.65 µM (inactive)	2.03 µM (inactive)	1.88 µM (inactive)	2.85 µM (inactive)	5.15 µM (inactive)	2.6 µM (inactive)	2.3 µM (inactive)	1.63 µM (inactive)	
O=[N+]([O-])c1cccc(C2=NOC3C4CCC(C4)C23)c1 (stereo unspecified)	> 100 µM (inactive)	> 100 µM (inactive)	> 100 µM (inactive)	> 100 µM (inactive)	> 100 µM (inactive)	> 100 µM (inactive)		> 100 µM (inactive)	> 100 µM (inactive)	> 100 µM (inactive)	> 100 µM (inactive)		> 100 µM (inactive)	> 100 µM (inactive)	> 100 µM (inactive)		> 100 µM (inactive)	> 100 µM (inactive)
CCCN1CC=CCC1	> 100 µM (inactive)	> 100 µM (inactive)			> 100 µM (inactive)	> 100 µM (inactive)	> 100 µM (inactive)	> 100 µM (inactive)	> 100 µM (inactive)	> 100 µM (inactive)	> 100 µM (inactive)	> 100 µM (inactive)	> 100 µM (inactive)	> 100 µM (inactive)	> 100 µM (inactive)	> 100 µM (inactive)	> 100 µM (inactive)	> 100 µM (inactive)
Oc1cc(-c2ccccn2)nc2cccc(F)c12	> 100 µM (inactive)		> 100 µM (inactive)	> 100 µM (inactive)		> 100 µM (inactive)	> 100 µM (inactive)	> 100 µM (inactive)	> 100 µM (inactive)	> 100 µM (inactive)	> 100 µM (inactive)	95.3 µM (inactive)	> 100 µM (inactive)	0.644 µM (active)	0.641 µM (active)	> 100 µM (inactive)	> 100 µM (inactive)	> 100 µM (inactive)
CCOc1ccc2c(c1)[n+]([O-])c(S(=O)(=O)c1ccc(C)cc1)c(N)[n+]2[O-]	> 100 µM (inactive)	> 100 µM (inactive)	> 100 µM (inactive)	> 100 µM (inactive)	> 100 µM (inactive)	> 100 µM (inactive)	> 100 µM (inactive)	> 100 µM (inactive)		> 100 µM (inactive)	> 100 µM (inactive)	> 100 µM (inactive)	> 100 µM (inactive)	> 100 µM (inactive)	> 100 µM (inactive)		> 100 µM (inactive)	49.2 µM (inactive)
Cc1c(C(=O)/C=C/c2ccco2)[n+]([O-])c2ccccc2[n+]1[O-]	> 100 µM (inactive)		> 100 µM (inactive)			> 100 µM (inactive)	> 100 µM (inactive)	> 100 µM (inactive)	> 100 µM (inactive)	> 100 µM (inactive)	> 100 µM (inactive)	> 100 µM (inactive)	> 100 µM (inactive)	> 100 µM (inactive)	> 100 µM (inactive)	> 100 µM (inactive)	> 100 µM (inactive)	58.9 µM (inactive)
Cc1cc(N(CCC#N)CCC#N)ccc1/C=C1N=C(/C=C/c2ccccc2)N(c2ccc(S(N)(=O)=O)cc2)C\1=O	> 100 µM (inactive)	> 100 µM (inactive)	> 100 µM (inactive)	> 100 µM (inactive)	> 100 µM (inactive)	> 100 µM (inactive)	> 100 µM (inactive)	> 100 µM (inactive)	> 100 µM (inactive)	> 100 µM (inactive)	> 100 µM (inactive)	> 100 µM (inactive)	> 100 µM (inactive)	> 100 µM (inactive)			> 100 µM (inactive)	> 100 µM (inactive)
COc1ccc2oc3c4c2c1CCC4CCC3=O (stereo unspecified)	> 100 µM (inactive)	> 100 µM (inactive)		> 100 µM (inactive)	> 100 µM (inactive)	> 100 µM (inactive)	> 100 µM (inactive)	5.47 µM (inactive)	> 100 µM (inactive)	> 100 µM (inactive)	> 100 µM (inactive)	> 100 µM (inactive)	> 100 µM (inactive)	> 100 µM (inactive)	> 100 µM (inactive)	36.1 µM (inactive)	25.2 µM (inactive)	58.2 µM (inactive)
CC1=NN(C(=O)Cc2ccccc2)C(=O)/C1=C\c1ccco1	> 100 µM (inactive)		> 100 µM (inactive)	> 100 µM (inactive)	> 100 µM (inactive)	> 100 µM (inactive)	> 100 µM (inactive)	> 100 µM (inactive)	> 100 µM (inactive)	> 100 µM (inactive)	> 100 µM (inactive)		> 100 µM (inactive)	> 100 µM (inactive)	> 100 µM (inactive)		> 100 µM (inactive)	> 100 µM (inactive)
C#CCN(N=O)C(=O)NC(CCCCNC(=O)OCc1ccccc1)C(=O)OCc1ccccc1 (stereo unspecified)	21.2 µM (inactive)	27.9 µM (inactive)		> 100 µM (inactive)	37.8 µM (inactive)	67.6 µM (inactive)	47.2 µM (inactive)	27.7 µM (inactive)	28.4 µM (inactive)	55.5 µM (inactive)		32.7 µM (inactive)	55.5 µM (inactive)	26.1 µM (inactive)	31.5 µM (inactive)	46.7 µM (inactive)	30.8 µM (inactive)	13.9 µM (inactive)
COc1ccc(C(=O)Cc2c(C(=O)c3ccccc3)c3ccccc3n2C(=O)c2ccccc2)cc1	> 100 µM (inactive)	78.2 µM (inactive)	> 100 µM (inactive)	> 100 µM (inactive)	> 100 µM (inactive)	50.2 µM (inactive)	92 µM (inactive)	> 100 µM (inactive)		53 µM (inactive)	> 100 µM (inactive)	94 µM (inactive)	31.3 µM (inactive)	> 100 µM (inactive)	> 100 µM (inactive)		32.9 µM (inactive)	47.1 µM (inactive)
Cc1ccc(Oc2ccc(C)cc2N)cc1	52.5 µM (inactive)	30.5 µM (inactive)	48.6 µM (inactive)	> 100 µM (inactive)	> 100 µM (inactive)	94.4 µM (inactive)	> 100 µM (inactive)	> 100 µM (inactive)	97.7 µM (inactive)		> 100 µM (inactive)	> 100 µM (inactive)	96.4 µM (inactive)	> 100 µM (inactive)	> 100 µM (inactive)	31.5 µM (inactive)	34.8 µM (inactive)	

From ChEMBL document CHEMBL1201862, “PubChem BioAssay data set” (2004)
